The test system of one assay is inactive Stat5 monomer. Kind of assay: Inactive STAT monomer added to activated Stat3 before EMSA (titration of compound). Type of assay: binding.
Assay [1] concerns IL-6-induced Stat3 activation in NIH3T3. Kind of assay: IL-6-induced Stat3 activation in NIH3T3 (EMSA of nuclear extracts). Format: cell-based, mouse. How it is done: FIGS. 3A-3D. Inhibition of Stat3-mediated gene expression by PLATINUM-401. (FIG. 3A) and (FIG. 3B) v-Src-transformed mouse fibroblasts that stably express Stat3-dependent (NIH3T3/v-Src/pLucTKS3) and Stat3-independent (NIH3T3/v-Src/pRLSRE) luciferase reporters or β-galactosidase (β-gal), as well as normal mouse fibroblast (NIH3T3) transiently transfected with pLucTKS3, pGL2-VEGF-Luc, NFkB-Luc or pLucSRE together with or without v-Src were treated with or without PLATINUM-401 for 48 h. Cytosolic extracts were then prepared from cells for luciferase and […] activities measurements. Values are the means and S.D. of three to five independent assays; (FIG. 3C) and (FIG. 3D) Nuclear extracts or whole cell lysates were prepared from IL-6-stimulated normal mouse fibroblasts (NIH3T3) or their v-Src-transformed counterpart (NIH3T3/v-Src) that are treated with or without PLATINUM-401 for different times. Samples of equal total proteins were then subjected to in vitro DNA-binding activity and EMSA analysis or for SDS-PAGE and Western blot analysis for phosphorylated and total Stat3. […]
To further investigate the activities of PLATINUM-401, the inventors treated malignant cells and measured effects on Stat3 signaling. […]

Assay [2] relates to malignant cells harboring constitutively-active Stat3. Kind of assay: Constitutive Stat3 activation in treated malignant cells (EMSA of nuclear extracts). Type of assay: cell-based. Conditions: 24 h treatment. Here is the method: FIGS. 5A and 5B. Evaluation for effects of PLATINUM-401 on cellular constitutive Stat3 activation and cell proliferation. Normal or malignant cells were treated with or without PLATINUM-401 and nuclear extracts were prepared for Stat3 DNA-binding activity assay with hSIE probe, or cells were processed for nuclear Ki67 immunohistochemistry. (FIG. 5A) EMSA analysis of Stat3 DNA-binding activity; (FIG. 5B) Graphical representations of quantified nuclear staining of Ki-67 proliferation index. Stat3:Stat3-DNA complexes in gels are labeled. The Ki-67 proliferation indexes were calculated as the percent positive tumor cells relative to the total number of cells. Ki67 values are representative of 3 independent assays.
Nuclear extract preparation and gel shift assays—Nuclear extract preparation from NIH3T3 stimulated by rhIL-6, NIH3T3/hEGFR stimulated by rhEGF, v-Src-transformed fibroblasts (NIH3T3/v-Src) or tumor cell lines and electrophoretic mobility shift assay were carried out as previously described (Turkson et al., 1998; Garcia et al., 1997; Yu et al., 1995). […]
(§1) The inventors further examined the biological effects of PLATINUM-401 and determined whether any changes might correlate with the inhibition of constitutively-active Stat3. […]

In the next assay the test system is MDA-MB-231. Kind of assay: Cell cycle analysis by BrdU labeling and flow cytometry. Type of assay: cell-based, human. How it is done: (§2) FIG. 6. Analysis of relative cellular DNA content using BrdU labeling and flow cytometry. Relative DNA content of human breast cancer cell lines following treatment with or without PLATINUM-401 was analyzed by BrdU incorporation and flow cytometry. The population of cells determined from the relative DNA content is shown in each panel for each treatment condition. Results are the representative of 3 independent determinations.
(§3) Cell proliferation and TUNEL assays—Proliferating cells were first treated with or without PLATINUM-401 for up to 48 h. A portion of cells were harvested for BrdU incorporation following the manufacturer's (BD Biosciences Pharmingen, San Diego, Calif.) instructions and analyzed by flow cytometry. Harvested cells were also analyzed for apoptosis via detection of TdT-mediated dUTP nick-end labeling (TUNEL) assay using Apoptosis Detection Systems Fluorescein according to the manufacturer's (Roche, Indianapolis, Ind.) instructions. Oligonucleotides and plasmids Transfections. The Stat3 antisense (5′-[…]-3′) (SEQ ID NO:3) or control mismatch oligonucleotides (5′-[…]-3′) (SEQ ID NO:4) were synthesized using phosphorothioate chemistry and were synthesized with 2′-Omethoxyethyl modification of the five terminal nucleotides (underlined; (Mora et al., 2002; Karras et al., 2000)) to increase stability. Transfections of Stat3AS and plasmids were carried out with Lipofectamine 2000 (LF) according to the manufacturer's instructions (Invitrogen, Carlsbad, Calif.). Briefly, cells were seeded at 1-2×10^6 cells/10-cm tissue-culture plates 18 h before transfection. Immediately before transfection, cells were washed once with PBS. Cells were transfected with luciferase reporters (4 μg) in the presence or absence of v-Src (4 μg), or were transfected with Stat3β (4 μg) or pRC/CMV Stat3 Flag (4 μg). […]
as §1

Another assay concerns MDA-MB-453. The assay is described as above. Format: cell-based, human. The following applies: no constitutively-active Stat3. Here is the method: as §2, §3, §1

For `CC(O)CN1CCN(CC(C)O)CC1` (stereo not shown) [PLATINUM-401], in the assay with inactive Stat5 monomer, the “influence of inactive Stat5 monomer on compound's effect on Stat3 DNA-binding activity” value is recorded as “failed to significantly influence”. Moreover, the “time at which IL-6-induced Stat3 activation was inhibited” value in assay [1] (IL-6-stimulated NIH3T3) is on record as at most 30 min. Also, the “ligand-induced activation of Stat3 DNA-binding activity” value in assay [1] (time- and dose-dependent) is “inhibits”. Moreover, in assay [2], the “constitutive activation of Stat3” value was “significant inhibition”. For the same compound, the cell cycle change result in the assay with MDA-MB-231 (BrdU, flow cytometry) is recorded as “arrested at G0/G1 phase”. Also, the S phase cells entry in the assay on MDA-MB-231 (persists up to 48 h) is given as “significant decrease”. Moreover, the cell cycle profile entry with MDA-MB-453 was “no significant change”.
